Patent US7550438B2, “Methods for production of growth-promoting proteins and peptides for kidney epithelial cells” (The University of Chicago, priority 1997, dated 2009)

Key:
[1] = tested on: monkey kidney epithelial cells of the BSC-1 line; test: Growth-promoting (mitogenic) activity: number of cells in BSC-1 cultures counted four days after addition; assay type: cell-based, African green monkey
Experimental: For the assay, cells were detached from the dish with a solution of trypsin and an aliquot was counted in a hemocytometer.
Nontransformed monkey kidney epithelial cells of the BSC-1 line were grown to confluence in Dulbecco's modified Eagle's medium containing 1% calf serum and […] in 55-mm culture dishes at 38° C. in a CO2 incubator. When cells achieved a density of about 10^6 per dish, the spent medium was removed and replaced with fresh medium containing 0.5% calf serum and the 14-amino acid peptide (0.5 μg/ml). Additions of each of the mitogenic signals at maximal concentration were made to the culture medium. Four days later the number of cells in each culture was counted in a hemocytometer. Values obtained were the mean of 3 separate cultures.
Nontransformed monkey kidney epithelial cells of the BSC-1 line were grown to confluence in Dulbecco's modified Eagle's medium containing 1% calf serum and 1.6 μM biotin at 38° C. in a CO2 incubator. When cells achieved a density of about 10^6 per dish, the spent medium was removed and replaced with fresh medium containing 0.5% calf serum and different amounts of the two peptides. Four days later the number of cells in each culture was counted. Each value is the mean of 3 separate cultures.
To delineate the sequence of the smallest peptide that could stimulate renal cell growth, synthetic peptides of different lengths were prepared (see below), and purified by reversed-phase HPLC on a C18 column.
The peptide of interest was then purified on a reversed-phase C18 column HPLC as described herein using a gradient of 1-80% acetonitrile in 0.1% trifluroacetic acid (TFA). The purified peptide was then lyophilized to remove the acetonitrile and TFA and the lyophilized powder was weighed, dissolved in buffer and added to the culture medium to measure its effect on the growth of monkey kidney epithelial cells as described herein. […] A value termed the K1/2, was used.

[2] = tested on: 3T3 fibroblasts; test: Growth of 3T3 fibroblasts; assay type: cell-based, murine
[3] = Stability of growth-promoting activity to storage, enzyme, chemicals, heat and solvents; assay type: physicochemical
Source text: For the assay, cells were detached from the dish with a solution of trypsin and an aliquot was counted in a hemocytometer. […] Thus WGF stimulated cell proliferation by 30% in this assay. When high-density, quiescent cultures (3×10^6 cells/55-mm dish) were used to assay mitogenic activity by measuring [^3H]thymidine incorporation into DNA, WGF enhanced DNA synthesis about 60%. To prepare WGF, cells can be scrape-wounded every other day, yet maximal activity will be released into the conditioned medium. WGF is mitogenic for both sparse and confluent cultures of BSC-1 cells, and is stable upon storage at 4° C. to −40° C. for many weeks.
WGF activity was also stable in 0.1% trifluoroacetic acid (TFA) (J. T. Baker, HPLC grade) and isopropanol.

[4] = tested on: BSC-1 cells; test: Appearance or release of WGF growth-promoting activity from BSC-1 cells (scrape wounding, heparinase); assay type: cell-based, African green monkey; details: confluent monolayer treated with the enzyme
Experimental: None of these agents inhibited cell growth when added to cells of nonwounded cultures. When added to the medium after the appearance of WGF mitogenic activity, neither PMSF nor aprotinin appeared to inhibit the increment in cell proliferation.
Confluent monolayer cultures were mechanically scraped using a 200 μL pipet tip (Continental Laboratory Products, San Diego, Calif.). […] (This process of scraping the cells has been termed “wounding” and has been used for many years as a model system to study repair of corneal abrasions of the eye. In effect, pressure is applied to cells sufficient to disrupt intercellular adhesion). To determine whether kidney epithelial cells released an autocrine growth factor into the medium after wounding, conditioned culture medium was removed from the culture dish after scrape-wounding a monolayer of BSC-1 cells. An aliquot was assayed for any growth-promoting activity on a nonwounded “detector” culture (1.2×10^6 cells per […]).
Treatment of a confluent monolayer of BSC-1 cells with the enzyme heparinase I (Sigma), but not heparinase III (Sigma), releases WGF mitogenic activity from cells into the culture media. However, this seems to deplete WGF, at least temporarily. When cells are first treated with heparinase I, rinsed, the media aspirated, and the monolayer is then scrape-wounded, no growth-promoting activity is detected in the conditioned media.

AQPYPQGNHEA
combined mitogenic effect with WGF (additivity) ([1]; maximal concentrations, 11-mer with wound conditioned buffer): not additive | mitogenic activity on BSC-1 cells (in words) ([1]; peptide 0.5 to 20 μg/ml, four days): to the same extent as did purified WGF protein | EC50 ([1]; peptide alone, BSC-1 cells, 4 days in culture, read-out: Growth-Stimulation K½): 260 nM | mitogenic activity on 3T3 fibroblasts [2]: did not stimulate growth

basic fibroblast growth factor [basic FGF, reference compound]
inhibition of mitogenic activity by 55% acetonitrile/0.1% (TFA) [3]: 90% | concentration equivalent in mitogenic potency to partially-purified WGF [1]: 0.02 ng/mL | stimulation of growth (increase in cell number compared to control at four days) ([1]; agent alone at maximal mitogenic concentration (14-Ser 0.5 μg/ml; EGF, IGF-I 50 ng/ml; acidic FGF 100 pg/ml; basic FGF 1,000 pg/ml; vasopressin 75 pg/ml; K 10.4 mM; Na 180 mM)): 18% | stimulation of growth in the presence of the 14-Ser peptide ([1]; mitogenic signal at maximal concentration plus 14-Ser peptide 0.5 μg/ml, four days): 41%

B1: heparinase III: enzyme heparinase III (Sigma) (protein, UniProt Q59289 25-659, looked up)
Heparin-sulfate lyase: QSSSITRKDFDHINLEYSGLEKVNKAVAAGNYDDAAKALLAYYREKSKAREPDFSNAEKPADIRQPIDKVTREMADKALVHQFQPHKGYGYFDYGKDINWQMWPVKDNEVRWQLHRVKWWQAMALVYHATGDEKYAREWVYQYSDWARKNPLGLSQDNDKFVWRPLEVSDRVQSLPPTFSLFVNSPAFTPAFLMEFLNSYHQQADYLSTHYAEQGNHRLFEAQRNLFAGVSFPEFKDSPRWRQTGISVLNTEIKKQVYADGMQFELSPIYHVAAIDIFLKAYGSAKRVNLEKEFPQSYVQTVENMIMALISISLPDYNTPMFGDSWITDKNFRMAQFASWARVFPANQAIKYFATDGKQGKAPNFLSKALSNAGFYTFRSGWDKNATVMVLKASPPGEFHAQPDNGTFELFIKGRNFTPDAGVFVYSGDEAIMKLRNWYRQTRIHSTLTLDNQNMVITKARQNKWETGNNLDVLTYTNPSYPNLDHQRSVLFINKKYFLVIDRAIGEATGNLGVHWQLKEDSNPVFDKTKNRVYTTYRDGNNLMIQSLNADRTSLNEEEGKVSYVYNKELKRPAFVFEKPKKNAGTQNFVSIVYPYDGQKAPEISIRENKGNDFEKGKLNLTLTINGKQQLVLVP
release of WGF mitogenic activity from cells into the culture media [4]: not
